How the values were obtained:
[1] = system: Aβ25-35 oligomer-intoxicated mice; experiment: Y-maze test, symptomatic treatment; type: in vivo; settings: doses 0.1; 0.3; 1.0; 3 and 10 mg/Kg i.p., symptomatic design
Procedure: The test compounds were tested for their ability to decrease the cognitive symptoms of Aβ25-35 oligomer-induced neurodegeneration, i.e. their ability to provide symptomatic anti-amnestic treatment (FIGS. 1A and 1B). In brief, to test the symptomatic effect of the test compounds, they were administered 8 days after the icy injection of the Aβ25-35 oligomers, 30 minutes before the YMT and PAT memory tests were conducted or 30 minutes before the test, but after the training session, in the case of the MWT or ORT (FIG. 1A). […]
The spontaneous alternation test was used to assess spatial working memory (very short-term memory) in rodents. […] The mouse's entries into each arm, including the arm at whose end it was placed, are recorded. […] The number of maximum alternations is thus the total number of entries into each arm minus 2 and the percentage of alternation was calculated according to the formula: % Alt=number of actual alternations/maximum number of alterations×100
The parameters measured included the percentage of alternations (memory index) and the total number of entries into the arms of the maze (exploration index, Maurice et al., 1994, 1996; Meunier et al., 2006, 2013; Villard et al., 2009, 2011). […]

lipid peroxidation = experiment: Lipid peroxidation in hippocampus, Aβ25-35 oligomer neuroprotection design; type: in vivo, mice; settings: 0.3 mg/Kg
Procedure: The neuroprotective effect of the compounds, i.e. the ability thereof to protect cells from Aβ25-35 oligomer neurotoxicity and neurodegeneration, is also tested (FIG. 10). The test compounds are thus administered on the same day as the injection of the Aβ25-35 oligomers and are continued to be administered on a daily basis up to day 7 after the injection of the oligomers, at which time the mice are subjected to the YMT, PAT, MWT or ORT. The brain's anatomy is analysed and neuronal cells are counted by immunohistochemistry on mice sacrificed at D13. The biochemical analyses for the quantification of markers of oxidative stress and apoptosis were carried out at D16 on a group of mice that had been subjected to the WMT (FIG. 10). […]
The amount of hydroperoxide present in the samples was measured by quantifying the Fe^3+-xylenol orange complex: in an acidic medium, hydroperoxides oxidise the Fe^2+ to Fe^3+. The latter forms a coloured complex with xylenol orange, the formation whereof was quantified by measuring its absorbance at 580 nm.
After thawing, the hippocampi were homogenised in cold methanol (1/10 w/v), centrifuged at 1000 g for 5 min and the supernatant was collected. […] The absorbance at 580 nm (A5801) was measured and 10 μl of cumene hydroperoxide (CHP, 1 mM) was added and the entirety was incubated for 30 min at ambient temperature. […]

Row | Structure (SMILES) | restoring Alt % in the Y-maze test, effective doses [1] | level of lipid peroxidation in the hippocampus (lipid peroxidation)
1 | NC12CC3CC(C1)CC(CCF)(C3)C2 [FENM, 3-(2-fluoroethyl)adamantan-1-amine] | effective at all doses tested from 0.1 mg/Kg | level equivalent to that of the control group
2 | CC12CC3CC(C)(C1)CC(N)(C3)C2 [memantine, 3,5-Dimethyl-1-adamantanamine, reference compound] | only effective at 0.3 mg/Kg | did not significantly decrease the level of lipid peroxidation
